Measurements as given in patent publication US20240173432A1, “Compositions and Methods for Treatment of Myotonic Dystrophy Type 1 with CRISPR/SluCas9” (Vertex Pharmaceuticals Incorporated, priority 2021, published 2024).

Tests used:
[1] = tested on: 3′ UTR of the human DMPK gene; experiment: Single-cut screening: indel editing efficiency by Sanger sequencing and ICE analysis in primary DM1 patient myoblasts; format: cell-based; settings: vehicle-treated samples; for Indel efficiency: single SluCas9 sgRNA RNP in primary DM1 patient myoblasts, Sanger sequencing and ICE analysis; for indel efficiency (Sanger sequencing and ICE analysis): single-cut, SluCas9 RNP, 72 hrs post nucleofection, wild-type allele
Outline: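 Indels were estimated by ICE from Sanger chromatograms of PCR amplicons covering the DMPK 3′ UTR wild-type allele, using only vehicle-treated samples; sgRNAs with R2<0.9 are flagged. Samples came from primary DM1 patient myoblasts (2 × 10^5) harvested 72 h after nucleofection with 30 pmol SluCas9 and 90 pmol single sgRNA RNP.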

[2] = tested on: CUG foci in primary DM1 patient myoblasts; experiment: Single-cut screening: FISH staining of CUG RNA foci; format: cell-based, human; settings: single sgRNA, primary DM1 patient myoblasts; for % of CUG foci free nuclei (DNA-PKi): DNA-PKi treated
Outline: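 CD56-purified primary DM1 patient myoblasts nucleofected with SluCas9:sgRNA RNP (30:90 pmol, single-cut), then DMSO or 3 μM DNA-PK inhibitor for 48 h. At 72 h post-nucleofection, cells fixed and stained for CUG foci with Cy3-PNA(CAG)5 probe (1 ng/μL, 80 °C), co-stained for MBNL1 and Hoechst, imaged by high-content confocal microscopy.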

[3] = tested on: CAG foci in primary DM1 patient myoblasts; experiment: Single-cut screening: CAG foci staining; format: cell-based, human; settings: single sgRNA; for % of CAG foci positive nuclei (DNA-PKi): DNA-PKi treated
Outline: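 Primary DM1 patient myoblasts were PFA-fixed and hybridized with […] (1 ng/μL, 15 min at 80° C) in 30% formamide/2×SSC, followed by anti-MBNL1 immunostaining and Hoechst counterstain. CAG RNA foci were quantified by high-content confocal imaging after single-cut SuCas9 sgRNA editing.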

Substance	Indel efficiency [1] [%]	% of CUG foci free nuclei (DNA-PKi) [2] [%]	% of CUG foci free nuclei (Vehicle) [2] [%]	% of CAG foci positive nuclei (DNA-PKi) [3] [%]	% of CAG foci positive nuclei (Vehicle) [3] [%]	indel efficiency (Sanger sequencing and ICE analysis) [1]
TCAGTGCATCCAAAACGTGGAT (guide RNA; chemistry not fully specified) [SluD76]	20	29.87	15.78	2.16	1.73	–
GGCCTTTTATTCGCGAGGGTCG (guide RNA; chemistry not fully specified) [SluD94]	30	27.23	18.18	1.32	1	–
CACTTTGCGAACCAACGATAGG (guide RNA; chemistry not fully specified) [SluD27]	8	20.28	7.6	1.4	0.93	–
ggcccctccctccccggccGCT (guide RNA; as printed in the source, key not given here) [SluU50]	22	48.15	11.21	1.59	0.75	–
TAGCggccggggagggaggggc (guide RNA; as printed in the source, key not given here) [SluU49]	0	38.7	7.53	1.44	1.03	–
GACAATAAATACCGAGGAATGT (guide RNA; chemistry not fully specified) [SluD81]	10	28.66	9.64	1.75	1.54	–
CCCAACAACCCCAATCCACGTT (guide RNA; chemistry not fully specified) [SluD70]	14	30.47	22.75	2.45	2.33	–
CCATCCACGTCAGGGCCTCAGC (guide RNA; chemistry not fully specified) [SluD08]	45	48.28	27.09	1.22	5	–
CCAAAACGTGGATTGGGGTTGT (listed as DNA, chemistry not fully specified) [SluD73]	65	32.52	12.95	2.33	2.52	high editing IN4DEL efficiency
GCCCCGGAGTCGAAGACAGTTC (guide RNA; chemistry not fully specified) [SluU05]	65	61.16	26.37	1.64	1.53	–
CTCCACGCACCCCCACCTATCG (guide RNA; chemistry not fully specified) [SluD22]	21	20.98	7.86	1.54	0.76	–
CGAGAGCAGCGCAAGTGAGGAG (guide RNA; chemistry not fully specified) [SluD49]	41	37.77	12.39	2.3	2.83	–
CAGGCTGAGGCCCTGACGTGGA (guide RNA; chemistry not fully specified) [SluD07]	28	29.79	12.52	0.82	2.37	–
CCTCCGACTCGCTGACAGGCTA (guide RNA; chemistry not fully specified) [SluD67]	39	25.54	10.06	1.8	0.69	–
CGCCCAGCTCCAGTCCTGTGAT (guide RNA; chemistry not fully specified) [SluU27]	1	38.24	7.71	1.94	1.64	–
CTCCGAGAGCAGCGCAAGTGAG (guide RNA; chemistry not fully specified) [SluD52]	6	26.8	7.59	1.57	1.26	–
tccctccccggccGCTAGGGGG (guide RNA; as printed in the source, key not given here) [SluU43]	5	28.61	7.64	1.76	1.02	–
TCCAAAACGTGGATTGGGGTTG (guide RNA; chemistry not fully specified) [SluD74]	56	31.37	10.6	1.55	2.27	–
AGGGCCTTTTATTCGCGAGGGT (guide RNA; chemistry not fully specified) [SluD96]	31	31.02	21	2.73	2.21	–
CACTCAGTCTTCCAACGGGGCC (guide RNA; chemistry not fully specified) [SluU07]	57	51.08	26.22	1.27	2.36	–
GAGAGCAGCGCAAGTGAGGAGG (listed as DNA, chemistry not fully specified) [SluD48]	60	25.41	13.31	2.91	2.3	high editing IN4DEL efficiency
AATATCCAAACCGCCGAAGCGG (guide RNA; chemistry not fully specified) [SluD62]	14	34.48	11.48	2.45	1.59	–
CCCTAGAACTGTCTTCGACTCC (guide RNA; chemistry not fully specified) [SluU03]	9	49.49	11.12	2.04	1.05	–
ggccgggtccgcggccggcgaa (GGCCGGGTCCGCGGCCGGCGAA; guide RNA; chemistry not fully specified) [SluU56]	27	42.84	16.76	1.83	0.94	–
gccgggtccgcggccggcgaac (GCCGGGTCCGCGGCCGGCGAAC; guide RNA; chemistry not fully specified) [SluU57]	17	52.65	18.03	1.77	1.54	–
GTGGATGGGCAAACTGCAGGCC (guide RNA; chemistry not fully specified) [SluD13]	55	42.02	15.93	2.77	4.07	–
gcccctccctccccggccGCTA (guide RNA; as printed in the source, key not given here) [SluU48]	11	24.81	20.76	1.56	1.1	–
